Article PMC11082943, “Rpt5-Derived Analogs Stimulate Human Proteasome Activity in Cells and Degrade Proteins Forming Toxic Aggregates in Age-Related Diseases” (International Journal of Molecular Sciences, 2024)
No end group written: not given here.

What was measured:
[1] = system: T1, proteasome in HEK293T cells; assay: 20S activity in cellulo (TAS3 assay); assay type: cell-based, human; conditions: 10 µM TAS3 in KRBH buffer, 30 min preincubation with compound, 37 °C, linear regression of last 60 min, triplicate, Btz 10 µM
T1 construct: HEK293T cells were seeded in black 96-well plates; endogenous in cells; host or cells: HEK293T
Procedure: HEK293T cells were seeded in black 96-well plates at 7 × 10^3 cells/well and incubated in DMEM supplemented with 10% FBS and penicillin/streptomycin (100 units/mL/100 µg/mL) at 37 °C with 5% CO2. […] After this time, the cells were treated with the tested peptides/peptidomimetics (1–50 µM in medium). Each sample was prepared in triplicate. The plates were incubated for an additional 30 min. Subsequently, the medium was removed, and 100 µL of 10 µM TAS3 in Krebs-Ringer Bicarbonate (KRBH) buffer, containing the tested modulator, was added to the wells. The fluorescence intensity was monitored every 2 min over a 90 min period at 37 °C using a Tecan Infinite M200 Pro plate reader (Tecan Trading AG, Männedorf, Switzerland) with the excitation and emission wavelengths set at 485 nm and 535 nm, respectively. A linear regression analysis was performed for the last 60 min of the measurement. Any increase or decrease in activity of the 20S was compared to that of the control (cells incubated with TAS3 probe in KRBH buffer) and calculated based on the change in fluorescence units per time [40]. To determine statistical significance, ordinary one-way ANOVA was used.

[2] = system: HEK293T cells; assay type: in vitro ADME, human
Excerpt: One of the obstacles in the development of peptide drugs is their low cell permeability. To evaluate if the peptide-based proteasome activators can cross the cell membrane, we synthesized an analog of peptide 7; labeled the ε-amine group of the N-terminal lysine residue with a fluorescent dye, 5/6-carboxytetramethylrhodamine (TAMRA); and used confocal microscopy to detect its entry into cells. […] Therefore, 7 was combined with the HIV-1 TAT protein-derived, membrane-penetrating peptide sequence GRKKRRQRRR (TAT 48–57), separated by the 20S proteasome recognition sequence, LLVY.
TAMRA fluorescent tags were attached to the N-terminal […] group of the lysine residue of compound 7 and the ε-amino group of the corresponding lysine residue in compound TAT-7 before the final deprotection and cleavage of the compounds from the solid support. To achieve the selective attachment of the label to the proper ε-amino group, the Fmoc-Lys(Mtt)-OH was used in this position during peptide elongation. […]
Human embryonic kidney cells (HEK293T, a generous gift of Prof. Grzegorz Węgrzyn, Faculty of Biology, University of Gdańsk, Gdańsk, Poland) were maintained in Dulbecco’s Modified Eagle Medium (DMEM) supplemented with 10% Fetal Bovine Serum (FBS) and penicillin/streptomycin (100 units/mL/100 µg/mL), at 37 °C with 5% CO2. […] The images were merged, and the colocalization of the dye emission was analyzed.

Row | Molecule | ΔRFU/min (change in fluorescence units per minute, TAS3 probe) [1] | cell permeability / cellular internalization (result in words) [2]
1 | CC(C)C[C@H](NC(=O)[C@H](Cc1ccccc1)NC(=O)c1cnccn1)B(O)O [Btz, bortezomib] | 3.7 RFU/min | –
2 | KKKANLQYYA [compound 7] | – | only slightly cell permeable
